Experimental findings from patent US10806729B2, “Quinoline derivatives for use in the treatment or prevention of viral infection” (ABIVAX, priority 2015, dated 2020) are described below.

Experiment [1] deals with HIV-1 strain YU2. As to the kind of experiment: HIV-1 p24 production in infected monocyte derived macrophages (ELISA). Conditions: Human immunodeficiency virus 1, Primary macrophage; primary macrophages infected with Yu-2, at 0.1 μM; read-out: inhibition levels of virus replication (p24). Type of experiment: cell-based. From the text: FIG. 1. Potency of quinoline derivatives to inhibit HIV-1 production in PBMC- and macrophages-infected cells. […] Each point represents 6 donors. B) HIV-1 strain YU2 was used to infect triplicate of monocyte derived-macrophages from different donors in the absence or presence of increasing concentrations of Compound 22. […] Each point represents 8 donors. To generate monocyte derived macrophages (MDMs), monocytes were isolated using CD14 microbeads (catalog no. 130-050-201; Miltenyi) and cultured in X-VIVO10 medium (Lonza) supplemented with GM-CSF 1000 U/ml and M-CSF 100 ng/ml for 6 days. Monocytes were seeded at a cell count of 50,000 cells per well in a 96 well plate. After 6 days medium was replaced with X-VIVO10 w/o Cytokines. After 2 days Macrophages were treated with Compound 22 and/or its N-glucuronide metabolite o/n and next day infected with Yu-2 virus for 6 hrs, washed with PBS and cultured in medium containing the compounds for 12 days. Supernatant for p24 Elisa was collected 2 times a week. Cells were treated with 0.01 μM up to 30 μM and p24 antigen levels were monitored in culture supernatant over a 12 day period. Cell culture supernatant HIV p24 titration was performed by ELISA with Ingen Innotest kit (Ingen Ref 80564) according to the manufacturer's instructions.
A general note: In an ELISA, binding on a coated surface is turned into a signal by an enzyme label.

The subject of experiment [2] is HIV-1. The conditions noted are these: human PBMCs, increasing drug pressure. The protocol:
Resistance to Compound 22 was tested on human PBMCs and compared to current therapies. […] Various classes of antiviral agents can affect the life cycle of HIV-1 in different manners. […] The selection of drug resistant mutants in vitro can be readily accomplished by maintaining the virus in a state of sub-optimal growth, regulated by slowly increasing the amount of drug pressure applied. This technique mimics the consequences of drug therapy in patients. Therefore, in this way, novel compounds can be assessed for their selection profile in order to evaluate the likelihood of emergence of HIV-1 drug resistance in future clinical trials. In addition, combinations of drugs can be investigated in the same manner.

`O=C(O)[C@H]1O[C@@H](N(c2ccc(OC(F)(F)F)cc2)c2ccc3cccc(Cl)c3n2)[C@H](O)[C@@H](O)[C@@H]1O` [N-glucuronide metabolite]: in experiment [1], the inhibition (in general, the drop in the measured response relative to a control, in per cent) at 0.1 µM was at most 90%.

Consider `Cc1ccnc2c1NC(=O)c1cccnc1N2C1CC1` [Nevirapine, reference compound], for which, in experiment [2], the “Time of Selection (weeks)” value was 3 weeks.

Regarding `C[C@H](Cn1cnc2c(N)ncnc21)OCP(=O)(O)O` [Tenofovir, reference compound], in experiment [2], the “Time of Selection (weeks)” value is 12 weeks.
